Assay results: US20230181581A1, “CIRCULATING B CELL SUBPOPULATIONS IN INDOLENT B CELL LYMPHOMA” (Alexion Pharmaceuticals, Inc., priority 2020, published 2023)
Values joined by “and” are separate entries in the source; they are usually repeats but may differ in a detail not shown here. Identical values can stand only once. “Also recorded” adds a separate entry of the source.

Legend:
Assay type in all cases: in vivo, human
[1] = test system: patients with indolent B cell lymphoma (iNHL); test: Phase IIa study: clinical response (best response) to single agent cerdulatinib in r/r iNHL patients grouped by baseline B cell subsets; conditions: 30 mg BID
Procedure: (§1) This example describes a phase IIa study designed to determine the safety, efficacy, pharmacokinetics, and pharmacodynamics of cerdulatinib at the selected phase II dose of 30 mg BID, dosed in 28 day cycles, in patients with r/r B or T cell malignancies.
(§2) Up to 50 patients were enrolled in 5 cohorts; aggressive lymphoma, iNHL, CLL/SLL, PTCL (all receiving single agent cerdulatinib), and iNHL with cerdulatinib in combination with anti-CD20 therapy. Patients remained on drug until discontinuation due to progressive disease (PD), adverse event (AE), withdrawal of consent (WC), or at the discretion of the treating physician.
(§3) Forty patients with iNHL were enrolled in a cohort receiving single agent cerdulatinib. From this cohort, 30 ml of whole blood was collected from each patient at pre-dose at baseline (C1), cycle 2 day 1 (C2), cycle 3 day 1 (C3), and cycle 6 day 1 (C6) in 10 ml mononuclear cell protection tubes (CPT tubes, BD Bioscience, San Jose, CA) and immediately centrifuged to separate mononuclear cells from plasma and red blood cells at each clinical site. At each time point, tubes were shipped for same day delivery to Caprion Biosciences, Montreal Canada, for preparation and live cell freezing of peripheral blood mononuclear cells (PBMC) by ficoll gradient centrifugation using standard procedures. Banked PBMC’s were stored at -80° C. until 5-8 patient samples through cycle 6 were obtained to enable batched flow cytometry analysis of B cell subsets for each patient over time.
A PCA analysis of the data was performed to identify subgroups of patients characterized by a common B cell phenotype. Subsequent analysis of the results of the PCA by hierarchical clustering was performed.

[2] = test system: patients with indolent B cell lymphoma (iNHL); test: Phase IIa study: patient disposition (discontinuation, treatment duration) on single agent cerdulatinib; conditions: r/r iNHL, 30 mg BID
Procedure: as §1
as §2, with “physician. […]” for “physician.”

[3] = test system: circulating B cell subsets; test: B cell subpopulation analysis of patient PBMC by flow cytometry over time on cerdulatinib
Procedure: as §3
PBMC’s were thawed and rested overnight in RPMI containing 10% fetal bovine serum. Cells were then stained with a cocktail containing Aqua live/dead cell stain (Life Technologies, Carlsbad, CA), and the following antibodies all obtained from BD Biosciences; CD19 PE-Cy7, CD20 BUV395, HLA-DR APC-Cy7, CD27 BV786, IgD PE, CD10 BV650, CD38 BV711, CD138 BV421, IgG BV605, and IgM APC. Cells were stained for 1 hour at room temperature, washed in phosphate buffered saline containing 0.5% bovine serum albumin, and subjected to flow cytometry using the BD Cantos. A maximum number of events was collected, the median number of total B cells collected was 18,789. The B cell subset gating strategy is described in FIG. 1.
Live B cells were then gated based on aqua viability stain and CD19. IgD and CD27 delineated double negative (DN), naïve, switched memory (SM), and non-switched memory (NSM). Within the naive cell area transitional B cells were identified based on CD10 expression. Within the SM area IgG and IgM switched B cells were identified. Plasma cells were identified based on high CD27 expression and CD138. Percent lymphocytes of total live PBMC’s were also calculated. All gating and calculation of B cell subset frequencies either from the total B cell gate or the immediate parent gate of a B cell subset were calculated using Flow Jo software (Tree Star, Inc., Ashland, OR), and analyzed.

[4] = iNHL patients, baseline (C1) vs cycles 2, 3, 6, FIG. 5A

With CCS(=O)(=O)N1CCN(c2ccc(Nc3ncc(C(N)=O)c(NC4CC4)n3)cc2)CC1 [cerdulatinib, 4-(cyclopropylamino)-2-((4-(4-(ethylsulfonyl)piperazin-1-yl)phenyl)amino)pyrimidine-5-carboxamide] the “Best Response CR, number of patients” value ([1]; G1 (N=9)) was 1.00, the “Best Response CR, percent of patients” value ([1]; G1 (N=9)) was 11.1% and the “Best Response PD, number of patients” value ([1]; G1 (N=9)) was 1.00. For the same compound, the “Best Response PD, percent of patients” value ([1]; G1 (N=9)) was 11.1%, the “Best Response PR, number of patients” value ([1]; G1 (N=9)) was 1.00 and the “Best Response PR, percent of patients” value ([1]; G1 (N=9)) was 11.1%. The “Best Response SD, number of patients” value ([1]; G1 (N=9)) was 2.00, the “Best Response SD, percent of patients” value ([1]; G1 (N=9)) was 22.2% and the “ORR (overall response rate), percent of patients” value ([1]; G1 (N=9)) was 22% and 22.2%. For the same compound, the “ORR + clinical benefit, number of patients” value ([1]; G1 (N=9)) was 4.00, the “ORR + clinical benefit, percent of patients” value ([1]; G1 (N=9)) was 44.4% and the “ORR, number of patients” value ([1]; G1 (N=9)) was 2.00. For the same compound, the “Best Response CR, number of patients” value ([1]; G2 (N=16)) was 5.00, the “Best Response CR, percent of patients” value ([1]; G2 (N=16)) was 31.3% and the “Best Response PD, number of patients” value ([1]; G2 (N=16)) was 0 (0%). The “Best Response PD, percent of patients” value ([1]; G2 (N=16)) was 0 (0%), the “Best Response PR, number of patients” value ([1]; G2 (N=16)) was 8.00 and the “Best Response PR, percent of patients” value ([1]; G2 (N=16)) was 50.0%. The “Best Response SD, number of patients” value ([1]; G2 (N=16)) was 1.00, the “Best Response SD, percent of patients” value ([1]; G2 (N=16)) was 6.3% and the “ORR (overall response rate), percent of patients” value ([1]; G2 (N=16)) was 81% and 81.3%. The “ORR + clinical benefit, number of patients” value ([1]; G2 (N=16)) was 14.0, the “ORR + clinical benefit, percent of patients” value ([1]; G2 (N=16)) was 87.5% and the “ORR, number of patients” value ([1]; G2 (N=16)) was 13.0. The “Best Response CR, number of patients” value ([1]; G2 + G3 (N=29)) was 6.00, the “Best Response CR, percent of patients” value ([1]; G2 + G3 (N=29)) was 20.7% and the “Best Response PD, number of patients” value ([1]; G2 + G3 (N=29)) was 3.00. The “Best Response PD, percent of patients” value ([1]; G2 + G3 (N=29)) was 10.3%, the “Best Response PR, number of patients” value ([1]; G2 + G3 (N=29)) was 14.0 and the “Best Response PR, percent of patients” value ([1]; G2 + G3 (N=29)) was 48.3%. The “Best Response SD, number of patients” value ([1]; G2 + G3 (N=29)) was 4.00, the “Best Response SD, percent of patients” value ([1]; G2 + G3 (N=29)) was 13.8% and the “ORR (overall response rate), percent of patients” value ([1]; G2 + G3 (N=29)) was 69.0%. The “ORR + clinical benefit, number of patients” value ([1]; G2 + G3 (N=29)) was 24.0, the “ORR + clinical benefit, percent of patients” value ([1]; G2 + G3 (N=29)) was 82.8% and the “ORR, number of patients” value ([1]; G2 + G3 (N=29)) was 20.0. The “Best Response CR, number of patients” value ([1]; G3 (N=13)) was 1.00, the “Best Response CR, percent of patients” value ([1]; G3 (N=13)) was 7.7% and the “Best Response PD, number of patients” value ([1]; G3 (N=13)) was 3.00. The “Best Response PD, percent of patients” value ([1]; G3 (N=13)) was 23.1%, the “Best Response PR, number of patients” value ([1]; G3 (N=13)) was 6.00 and the “Best Response PR, percent of patients” value ([1]; G3 (N=13)) was 46.2%. For the same compound, the “Best Response SD, number of patients” value ([1]; G3 (N=13)) was 3.00, the “Best Response SD, percent of patients” value ([1]; G3 (N=13)) was 23.1% and the “ORR (overall response rate), percent of patients” value ([1]; G3 (N=13)) was 53.8%. For the same compound, the “ORR + clinical benefit, number of patients” value ([1]; G3 (N=13)) was 10.0, the “ORR + clinical benefit, percent of patients” value ([1]; G3 (N=13)) was 76.9% and the “ORR, number of patients” value ([1]; G3 (N=13)) was 7.00. The “Best Response CR, number of patients” value ([1]; Total (N=38)) was 7.00, the “Best Response CR, percent of patients” value ([1]; Total (N=38)) was 18.4% and the “Best Response PD, number of patients” value ([1]; Total (N=38)) was 4.00. The “Best Response PD, percent of patients” value ([1]; Total (N=38)) was 10.5%, the “Best Response PR, number of patients” value ([1]; Total (N=38)) was 15.0 and the “Best Response PR, percent of patients” value ([1]; Total (N=38)) was 39.5%. The “Best Response SD, number of patients” value ([1]; Total (N=38)) was 6.00, the “Best Response SD, percent of patients” value ([1]; Total (N=38)) was 15.8% and the “ORR (overall response rate), percent of patients” value ([1]; Total (N=38)) was 57.9%. The “ORR + clinical benefit, number of patients” value ([1]; Total (N=38)) was 28.0, the “ORR + clinical benefit, percent of patients” value ([1]; Total (N=38)) was 73.7% and the “ORR, number of patients” value ([1]; Total (N=38)) was 22.0. For the same compound, the “Discontinuation due to AE (adverse event), number of patients” value ([2]; G1 (N=9)) was 4.00, the “Discontinuation due to AE (adverse event), percent of patients” value ([2]; G1 (N=9)) was 44.4% and the “Discontinuation due to PD (progressive disease), number of patients” value (from here on “Discontinuation due to PD … number of patients”) ([2]; G1 (N=9)) was 1.00. For the same compound, the “Discontinuation due to PD (progressive disease), percent of patients” value (“Discontinuation due to PD … percent of patients” for short) ([2]; G1 (N=9)) was 11.1%, the “Discontinuation due to AE (adverse event), number of patients” value ([2]; G2 (N=16)) was 1.00 and the “Discontinuation due to AE (adverse event), percent of patients” value ([2]; G2 (N=16)) was 6.3%. For the same compound, the “Discontinuation due to PD … number of patients” value ([2]; G2 (N=16)) was 6.00, the “Discontinuation due to PD … percent of patients” value ([2]; G2 (N=16)) was 37.5% and the “Discontinuation due to AE (adverse event), number of patients” value ([2]; G2 + G3 (N=29)) was 3.00. The “Discontinuation due to AE (adverse event), percent of patients” value ([2]; G2 + G3 (N=29)) was 10.3%, the “Discontinuation due to PD … number of patients” value ([2]; G2 + G3 (N=29)) was 11.0 and the “Discontinuation due to PD … percent of patients” value ([2]; G2 + G3 (N=29)) was 37.9%. The “Discontinuation due to AE (adverse event), number of patients” value ([2]; G3 (N=13)) was 2.00, the “Discontinuation due to AE (adverse event), percent of patients” value ([2]; G3 (N=13)) was 15.4% and the “Discontinuation due to PD … number of patients” value ([2]; G3 (N=13)) was 5.00. The “Discontinuation due to PD … percent of patients” value ([2]; G3 (N=13)) was 38.5%, the “Discontinuation due to AE (adverse event), number of patients” value ([2]; Total (N=38)) was 7.00 and the “Discontinuation due to AE (adverse event), percent of patients” value ([2]; Total (N=38)) was 18.4%. The “Discontinuation due to PD … number of patients” value ([2]; Total (N=38)) was 12.0, the “Discontinuation due to PD … percent of patients” value ([2]; Total (N=38)) was 31.6% and the “CD10 and CD38 expression on transitional B cells over time” value ([3]; iNHL patients on cerdulatinib, FIG. 5B representative Group 1 patient) was “loss of CD10 and CD38 expression”. The “Frequency of B cells of lymphocytes over time” value [3, 4] was “did not change”, the “Frequency of CD10 negative (non-transitional) naïve B cells over time” value [3, 4] was “rise and increase” and the “Frequency of total naïve B cells over time” value [3, 4] was “did not change”. For the same compound, the “Frequency of transitional (CD10+) B cells of total B cells over time” value [3, 4] was “decreased; also recorded: induces loss of transitional B cell phenotype”, the “Frequencies of switched memory or double negative B cells over time” value ([3]; iNHL patients, baseline (C1) vs cycles 2, 3, 6, FIG. 8) was “no meaningful impact; also recorded: does not impact” and the “Impact on the measured B cell populations” value ([3]; iNHL patients, over a period of 6 months on therapy) was “very little impact”.
